Results taken from patent US8895509B2, “MIR-200 family induces mesenchymal-to-epithelial transition (MET) in ovarian cancer cells” (Georgia Tech Research Corporation, priority 2010, dated 2014).
pIC50: −log10 of the molar value.

System: HEY cells
Experiment: sensitivity of transfected HEY cells to cisplatin
Format: cell-based, human
Conditions: cisplatin 0.1-50 μM
Protocol: Cultures of the mesenchymal HEY cells were transfected with a negative control (NC) miRNA or miR-429 using Lipofectamine 2000 (Invitrogen) and treated with increasing concentrations of cisplatin. (0.1, 0.5, 1, 3, 5, 7, 10, 15, 20, 30, 50 μM).

Structure (SMILES): N.N.[Cl][Pt][Cl] [cisplatin]
- pIC50 (HEY cells transfected with miR-429): 5.34
- pIC50 (HEY cells transfected with negative control (NC) miRNA): 5.06
